Where two headings read alike, the source gives them in different places. Positions of bridges follow the written chain, without caps; N, C: chain ends. Residues, ends and D or L forms follow the SMILES beside them.
What was measured:
Alternaria alternata = conditions: 48 h
Aspergillus niger = conditions: 48 h
Bipolaris sorokiniana = conditions: 48 h
P. aeruginosa = assay: Antibacterial microdilution assay; assay type: cell-based; conditions: CA-MHB, 37 °C 48 h; for Antibacterial activity against P. aeruginosa: concentrations up to 80 µM
C. albicans = conditions: 48 h
[1] = test system: filamentous fungi and oomycetes; conditions: cited from earlier work
E. coli = assay: Antibacterial microdilution assay; assay type: cell-based, Escherichia coli; conditions: CA-MHB, 37 °C 48 h; for Antibacterial activity against E. coli: concentrations up to 80 µM
F. solani = conditions: 48 h
Fusarium oxysporum = conditions: 48 h
[2] = read-out: Antifungal activity IC50, F. graminearum, Table 1, native vs truncated forms, potato–dextrose broth, 10^4–10^5 conidia per mL, 25 °C 48 h, 50% inhibition of spore germination, light microscopy, three replicates
[3] = Table S1, microdilution, YPDB, OD600, growth control +, negative control -

Row | Compound | IC50 (F. graminearum; [2]) | IC50 (Alternaria alternata) | IC50 (Aspergillus niger) | IC50 (Bipolaris sorokiniana) | Antibacterial activity against P. aeruginosa (P. aeruginosa) | Growth of C. albicans at 1.25 µM peptide (C. albicans; [3]) | Antibacterial activity against E. coli (E. coli) | IC50 (F. solani) | IC50 (Fusarium oxysporum) | IC50 (F. graminearum; 48 h) | further results
1 | CSCC[C@@H]1NC(=O)[C@@H]2CSSC[C@H](NC(=O)[C@H](CCC(=O)O)NC(=O)[C@H](CCC(N)=O)NC(=O)[C@H](C(C)C)NC(=O)[C@H](CCCNC(=N)N)NC(=O)[C@H](Cc3c[nH]c4ccccc34)NC(=O)[C@@H]3CCCN3C(=O)[C@H](CCC(=O)O)NC(=O)[C@H](CC(=O)O)NC(=O)[C@H](CCC(=O)O)NC(=O)[C@H](Cc3c[nH]cn3)NC(=O)[C@H](CCCNC(=N)N)NC(=O)[C@H](CCCNC(=N)N)NC1=O)C(=O)N[C@@H](C(C)C)C(=O)N[C@@H](CO)C(=O)N[C@@H](CCC(N)=O)C(=O)N[C@H](C(=O)N[C@@H](CCCNC(=N)N)C(=O)N[C@@H](CCCNC(=N)N)C(=O)N[C@@H](CCCNC(=N)N)C(=O)N[C@@H](CCCNC(=N)N)C(=O)NCC(=O)NCC(=O)NCC(=O)N[C@@H](CC(=O)O)C(=O)O)CSSC[C@H](NC(=O)[C@H](CO)NC(=O)CNC(=O)[C@H](CCCNC(=N)N)NC(=O)CNC(=O)[C@H](CO)NC(=O)CN)C(=O)N[C@@H](CCCNC(=N)N)C(=O)N[C@@H](CO)C(=O)N[C@@H](CCC(N)=O)C(=O)N2 [EcAMP1-WT] (H-GSGRGSCRSQCMRRHEDEPWRVQECVSQCRRRRGGGD-OH; disulfide 7-29, 11-25; N-terminus and C-terminus assumed) | 6.8 ± 1 µM | 18.4 ± 2.7 µM | > 32 µM | 25.7 ± 3.6 µM | inactive | MIC99 | inactive |  |  |  | IC50 (S. aureus; 48 h): 5 µM; Growth of S. aureus at 5 µM peptide (S. aureus; Table S2, 5 µM, microdilution, CA-MHB, 37 °C 48 h, OD600, growth control +, negative control -): MIC50; Growth of S. aureus at 10 µM peptide (S. aureus; Table S2, 10 µM, microdilution, CA-MHB, 37 °C 48 h, OD600, growth control +, negative control -): MIC95; Growth of S. aureus at 20 µM peptide (S. aureus; Table S2, 20 µM, microdilution, CA-MHB, 37 °C 48 h, OD600, growth control +, negative control -): MIC99; IC50 (C. albicans): 0.625 µM; Growth of C. albicans at 0.625 µM peptide (C. albicans; Table S1, 0.625 µM, microdilution, YPDB, OD600, growth control +, negative control -): MIC50; MIC99, almost complete suppression of C. albicans (C. albicans; microdilution, YPDB, range 0.625–80 µM, OD600): 1.25 µM; Number of microbes for which inhibition activity was registered [1]: 11; IC50 ([1]; read-out: IC50 against filamentous fungi and oomycetes): 4.5 to 18.2 µM
2 | CSCC[C@@H]1NC(=O)[C@@H]2CSSC[C@H](NC(=O)[C@H](CCC(=O)O)NC(=O)[C@H](CCC(N)=O)NC(=O)[C@H](C(C)C)NC(=O)[C@H](CCCNC(=N)N)NC(=O)[C@H](Cc3c[nH]c4ccccc34)NC(=O)[C@@H]3CCCN3C(=O)[C@H](CCC(=O)O)NC(=O)[C@H](CC(=O)O)NC(=O)[C@H](CCC(=O)O)NC(=O)[C@H](Cc3c[nH]cn3)NC(=O)[C@H](CCCNC(=N)N)NC(=O)[C@H](CCCNC(=N)N)NC1=O)C(=O)N[C@@H](C(C)C)C(=O)N[C@@H](CO)C(=O)N[C@@H](CCC(N)=O)C(=O)N[C@H](C(=O)O)CSSC[C@H](N)C(=O)N[C@@H](CCCNC(=N)N)C(=O)N[C@@H](CO)C(=O)N[C@@H](CCC(N)=O)C(=O)N2 [EcAMP1-X1] (H-CRSQCMRRHEDEPWRVQECVSQC-OH; disulfide 1-23, 5-19 (inferred); N-terminus assumed) | 9 ± 1.4 µM | 21.1 ± 2.4 µM | > 32 µM | > 32 µM | absolutely inactive |  | absolutely inactive | 6.9 ± 0.7 µM | 15.4 ± 1.1 µM |  | Antibacterial activity against S. aureus (S. aureus; microdilution, CA-MHB, 37 °C 48 h, concentrations up to 80 µM): absolutely inactive; Activity against C. albicans (C. albicans; microdilution, YPDB, concentrations up to 80 µM): absolutely inactive
3 | CSCC[C@@H]1NC(=O)[C@@H](N)CSSC[C@@H](C(=O)O)NC(=O)[C@H](CCC(=O)O)NC(=O)[C@H](CCC(N)=O)NC(=O)[C@H](C(C)C)NC(=O)[C@H](CCCNC(=N)N)NC(=O)[C@H](Cc2c[nH]c3ccccc23)NC(=O)[C@@H]2CCCN2C(=O)[C@H](CCC(=O)O)NC(=O)[C@H](CC(=O)O)NC(=O)[C@H](CCC(=O)O)NC(=O)[C@H](Cc2c[nH]cn2)NC(=O)[C@H](CCCNC(=N)N)NC(=O)[C@H](CCCNC(=N)N)NC1=O [EcAMP1-X2] (H-CMRRHEDEPWRVQEC-OH; disulfide 1-15) | 18.1 ± 2.1 µM | > 32 µM | > 32 µM | > 32 µM |  |  |  | 11 ± 1.9 µM | 23.2 ± 2.6 µM |  | 
4 | CSCC[C@@H]1NC(=O)[C@@H]2CSSC[C@H](NC(=O)[C@H](CCC(=O)O)NC(=O)[C@H](CCC(N)=O)NC(=O)[C@H](C(C)C)NC(=O)[C@H](CCCNC(=N)N)NC(=O)[C@H](C)NC(=O)[C@@H]3CCCN3C(=O)[C@H](CCC(=O)O)NC(=O)[C@H](CC(=O)O)NC(=O)[C@H](CCC(=O)O)NC(=O)[C@H](Cc3c[nH]cn3)NC(=O)[C@H](CCCNC(=N)N)NC(=O)[C@H](CCCNC(=N)N)NC1=O)C(=O)N[C@@H](C(C)C)C(=O)N[C@@H](CO)C(=O)N[C@@H](CCC(N)=O)C(=O)N[C@H](C(=O)N[C@@H](CCCNC(=N)N)C(=O)N[C@@H](CCCNC(=N)N)C(=O)N[C@@H](CCCNC(=N)N)C(=O)N[C@@H](CCCNC(=N)N)C(=O)NCC(=O)NCC(=O)NCC(=O)N[C@@H](CC(=O)O)C(=O)O)CSSC[C@H](NC(=O)[C@H](CO)NC(=O)CNC(=O)[C@H](CCCNC(=N)N)NC(=O)CNC(=O)[C@H](CO)NC(=O)CN)C(=O)N[C@@H](CCCNC(=N)N)C(=O)N[C@@H](CO)C(=O)N[C@@H](CCC(N)=O)C(=O)N2 [EcAMP1-X3] (H-GSGRGSCRSQCMRRHEDEPARVQECVSQCRRRRGGGD-OH; disulfide 7-29, 11-25; N-terminus and C-terminus assumed) |  |  |  |  |  |  |  | 8.6 ± 1.5 µM | 15 ± 2.1 µM | 9.9 ± 1.9 µM | 
5 | CSCC[C@@H]1NC(=O)[C@@H]2CSSC[C@H](NC(=O)[C@H](CCC(=O)O)NC(=O)[C@H](CCC(N)=O)NC(=O)[C@H](C(C)C)NC(=O)[C@H](CCCNC(=N)N)NC(=O)[C@H](Cc3c[nH]c4ccccc34)NC(=O)[C@@H]3CCCN3C(=O)[C@H](CCC(=O)O)NC(=O)[C@H](CC(=O)O)NC(=O)[C@H](CCC(=O)O)NC(=O)[C@H](Cc3c[nH]cn3)NC(=O)[C@H](CCCNC(=N)N)NC(=O)[C@H](CCCNC(=N)N)NC1=O)C(=O)N[C@@H](C(C)C)C(=O)N[C@@H](CO)C(=O)N[C@@H](CCC(N)=O)C(=O)N[C@H](C(=O)N[C@@H](CCCNC(=N)N)C(=O)N[C@@H](CCCNC(=N)N)C(=O)O)CSSC[C@H](NC(=O)[C@H](CO)NC(=O)CNC(=O)[C@H](CCCNC(=N)N)NC(=O)CNC(=O)[C@H](CO)NC(=O)CN)C(=O)N[C@@H](CCCNC(=N)N)C(=O)N[C@@H](CO)C(=O)N[C@@H](CCC(N)=O)C(=O)N2 [EcAMP1-X4] (H-GSGRGSCRSQCMRRHEDEPWRVQECVSQCRR-OH; disulfide 7-29, 11-25; N-terminus and C-terminus assumed) |  |  |  |  |  |  |  | 7.8 ± 0.7 µM | 15.8 ± 1.6 µM | 8.5 ± 1.2 µM | 
6 | LL37: linear α-helical antimicrobial peptide cathelicidin, positive control (LLGDFFRKSKEKIGKEFKRIVQRIKDFLRNLVPRTES; Antibacterial peptide LL-37; UniProt P49913 134-170, looked up) [reference compound] |  |  |  |  |  | MIC99 |  |  |  |  | Growth of P. aeruginosa at 1.25 µM peptide (P. aeruginosa; Table S4, 1.25 µM, OD600, growth control +, negative control -): MIC99; Growth of S. aureus at 0.625 µM peptide (S. aureus; Table S2, 0.625 µM, microdilution, CA-MHB, 37 °C 48 h, OD600, growth control +, negative control -): MIC50; Growth of S. aureus at 1.25 µM peptide (S. aureus; Table S2, 1.25 µM, microdilution, CA-MHB, 37 °C 48 h, OD600, growth control +, negative control -): MIC99; Growth of E. coli at 1.25 µM peptide (E. coli; Table S3, 1.25 µM, OD600, growth control +, negative control -): MIC99

— publication PMC9182383, “Rational Design of Plant Hairpin-like Peptide EcAMP1: Structural–Functional Correlations to Reveal Antibacterial and Antifungal Activity” (Molecules, 2022)
